Molecular target: T1, Rhodobacter sphaeroides (Rb.s.) ADPG Ppase (Cereibacter sphaeroides, UniProt Q9RNH7)
T1 construct: made in house
Assay: ADPGlc synthesis assay (14-C Glc-1-P converted to ADPGlucose) with purified recombinant Rb.s. ADPG Ppase, with and without activator F6P
Format: biochemical
Details: for inhibition of Rb.s. ADPG Ppase: 500 μM analog, 0.25 mM ATP, 0.5 mM Glc-1-P, pH 7
Excerpt: One particular in vitro method for assessing the activity of an inhibitor to purified ADPGlc PPase is the following: • Assaying for ADPGlc synthesis activity involves measuring the amount of 14-C labeled Glc-1-P converted to ADPGlucose (Preiss, J., Shen, L., Greenberg, E., and Gentner, N. (1966) Biochemistry 5, 1833-1845). Briefly, unreacted Glc-1-P is separated from product by the following steps: 1)digestion with alkaline phosphatase (thus removing the negatively charged phosphate); 2) spotting an aliquot of the reaction mixture on to positively charged DE-81 filters (Whatman); and 3) washing the filters with water (thus removing the now neutral C-14 glucose).
To assess the effect of a putative inhibitor, enzyme assays are performed at a subsaturating concentration of substrate (depending on the enzyme, ATP=0.2-1 mM, Glc-1-P=0.5 mM) under standard conditions in the absence and presence of the major activator for each enzyme (1-5 mM depending on enzyme). In this way, the effect of the inhibitors can be evaluated under the range of the expected in vivo conditions. Initial screening of a putative inhibitor typically includes testing at two concentrations (˜25 μM and 1 mM)±major activator with appropriate controls and blanks for a total of 9 assays/inhibitor/enzyme (2 control assays—appropriate enzyme concentrations in the absence of inhibitor; 4 experimental assays; 1 blank in the absence of inhibitors; 2 blanks in the presence of inhibitor (no activator required).
The APDGIc Ppase from Rhodobacter sphaeroides has been used as a model enzyme for initial testing of inhibitors as it has been cloned, sequenced, and expressed in the inventor's laboratory (Meyer et al (1999) Arch. Biochem. Biophys. 372, 179-188; Igarashi, R. Y. and Meyer, C. R. (2000) Arch. Biochem. Biophys. 376, 47-58) and the purified recombinant enzyme is readily available. Further, this particular enzyme has the most complex regulation (having partial overlap with nearly every type of ADPG Ppase) and has sufficient homology (ranging from ˜40-70% similarity) to the enzyme primary sequence from the mentioned pathogenic bacteria.
PREMIX: A: 100 mM HEPES (pH 7), 0.5 mg/mL BSA, 0.5 mM Glc-1-P, 0.25 mM ATP subsaturating (near S0.5 value), 5 mM MgCl2, (0.2 U Pyrophosphatase))
PREMIX B: A+1 mM F6P (170 μL premix will allow 20 μL for analog vol., 10 μL of E)
II. ANALOG CONC.=5, 50, 500 μM (STOCK CONC.=5 mM) in 50 mM HEPES, pH 7, note that 20 μL of 5 mM in 200 μL assay will yield 500 μM final concentration to obtain 5 mM aliquots: • ANALOG I: add 625 μL of HEPES buffer, mix thoroughly • ANALOG II: add 500 μL of HEPES buffer, mix thoroughly
1:10 DILUTION ALIQUOTS OF 5 mM STOCKS are prepared in order to generate stock solutions that will give 50 and 5 μM with the addition of 20 μL. 100 μL aliquots are stored at −20 C
RBS ADPG PPASE WT ENZYME CONC.=17 mg/mL (use 1:8000 dilution in Dilution Buffer)
THE FOLLOWING ASSAY SET OF 11 ARE UTILIZED FOR EACH ANALOG • 1-BLANK (Premix A) • 2-BLANK+50 μM ANALOG (A) • 3-BLANK+500 μM ANALOG (A) • 4-E CON (A) • 5-E CON+F6P (B) • 6-E+5 μM (A) • 7-E+5 μM((B) • 8-E+50 μM(A) • 9-E+50 μM(B) • 10-E+500 μM (A) • 11-E+500 μM (B)
Purified Rb.s ADPG Ppase was assayed under standard conditions (0.25 mM ATP [˜S0.5 value], 0.5 mM Glc-1-P, 5 mM Mg, 100 mM HEPES, pH7) in the presence and absence of the activator F6P (1 mM) at 3 concentrations of the analogs: 5, 50, and 500 μM. Analog stock solutions were made in 50 mM HEPES, pH 7). These concentrations should be regarded as estimates as there could have been some breakdown of the compounds during 2 years of storage at −20° C. The analogs had no effect on the background cpm of the assays.

[1] = E + 5 uM analog, Premix A (no F6P)
[2] = E + 5 uM analog, Premix B (+1 mM F6P)
[3] = E + 50 uM analog, Premix A (no F6P)
[4] = E + 50 uM analog, Premix B (+1 mM F6P)
[5] = E + 500 uM analog, Premix A (no F6P)
[6] = E + 500 uM analog, Premix B (+1 mM F6P)

T1 sequence (Q9RNH7 whole entry): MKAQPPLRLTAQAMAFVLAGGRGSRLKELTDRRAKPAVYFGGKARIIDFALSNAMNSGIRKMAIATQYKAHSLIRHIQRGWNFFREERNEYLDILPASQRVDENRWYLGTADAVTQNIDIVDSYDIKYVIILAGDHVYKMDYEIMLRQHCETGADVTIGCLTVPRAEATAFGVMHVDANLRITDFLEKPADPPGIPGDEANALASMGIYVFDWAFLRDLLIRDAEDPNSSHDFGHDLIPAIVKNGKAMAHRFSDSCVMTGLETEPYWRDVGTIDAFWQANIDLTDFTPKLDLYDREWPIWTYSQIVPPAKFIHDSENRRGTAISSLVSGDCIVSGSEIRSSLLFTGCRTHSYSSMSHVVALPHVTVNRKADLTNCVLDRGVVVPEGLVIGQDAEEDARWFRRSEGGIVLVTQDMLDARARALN

In the case of BP(=O)(OC[C@H]1O[C@@H](n2cnc3c(N)ncnc32)[C@H](O)[C@@H]1O)OP(=O)(O)O[C@H]1O[C@H](CO)[C@@H](O)[C@H](O)[C@H]1O (single isomer, unassigned) [Analog I, adenosine-α-P-boranodiphosphoglucose], the “inhibition of Rb.s. ADPG Ppase” value (absence of the activator F6P) was “about 75%”, the “inhibition of Rb.s. ADPG Ppase” value (presence of F6P (1 mM)) was roughly 50% and the “Units/mg (enzyme activity)” value [1] was 4.02 Units/mg. For the same compound, the “Units/mg (enzyme activity)” value [2] was 91.75 Units/mg, the “Units/mg (enzyme activity)” value [3] was 3.55 Units/mg and the “Units/mg (enzyme activity)” value [4] was 87.40 Units/mg. For the same compound, the “Units/mg (enzyme activity)” value [5] was 1.33 Units/mg and the “Units/mg (enzyme activity)” value [6] was 53.37 Units/mg.

For BP(=O)(OC[C@H]1O[C@@H](n2cnc3c(N)ncnc32)[C@H](O)[C@@H]1O)OP(=O)(O)O[C@H]1O[C@H](CO)[C@@H](O)[C@H](O)[C@H]1O (single isomer, unassigned) [Analog II, adenosine-α-P-boranodiphosphoglucose], the “inhibition of Rb.s. ADPG Ppase” value (absence of the activator F6P) was “about 70%”, the “inhibition of Rb.s. ADPG Ppase” value (presence of F6P (1 mM)) was “about 70%” and the “Units/mg (enzyme activity)” value [1] was 5.28 Units/mg. For the same compound, the “Units/mg (enzyme activity)” value [2] was 93.86 Units/mg, the “Units/mg (enzyme activity)” value [3] was 4.38 Units/mg and the “Units/mg (enzyme activity)” value [4] was 76.73 Units/mg. The “Units/mg (enzyme activity)” value [5] was 1.77 Units/mg and the “Units/mg (enzyme activity)” value [6] was 33.51 Units/mg.
